The results in this text go back to patent publication US20040191171A1, “Method of detecting skin stimulation effect” (priority 2001, published 2004).

Common to all, as to format: cell-based
The target in one test is T1, VR1 receptor (Homo sapiens, UniProt Q8NER1).
T1 construct: epidermal keratinocytes were brought into contact with capsaicin, which is an agonist of a VR1 receptor; host or cells: cultured epidermal keratinocytes
The experiment in a line: Intracellular calcium ion concentration in cultured epidermal keratinocytes (Fluo3-AM fluorescence), VR1 agonist/antagonist. On the procedure:
(§1) (a) Commercially available epidermal keratinocytes (product of Kurabo Industries Ltd.) were subjected to culture by means of a customary method by use of a KGM medium which had been prepared through the following procedure: MCDB153IK (product of Kyokuto Pharmaceutical Industrial Co., Ltd.) (10.93 g), N-2-hydroxyethylpiperazine-N′-2-ethanesulphonic acid (HEPES) (6.7 g), NaHCO3 (1.2 g), insulin (5 mg), hydrocortisone (0.5 mg), transferrin (10 mg), phosphorylethanolamine (14.1 mg), EGF (10 μg), penicillin (100 mg), and kanamycin (60 mg) were dissolved in purified water (1 L); the pH of the resultant solution was adjusted to 7.4 by use of NaOH; the resultant solution was subjected to filter sterilization; and bovine pituitary gland extract (product of Kyokuto Pharmaceutical Industrial Co., Ltd.) (55 mg) was added to the resultant solution immediately before use of the solution. On the day before measurement of calcium ions was carried out, the thus-cultured epidermal keratinocytes were inoculated into a 96-well plate (2×10^5 cells/well). […]
(§2) The fluorescence intensity was measured over time by means of a customary method by use of a fluorescence microplate reader (485 nm, 538 nm).
(§3) The concentration of intracellular calcium ions in the cells was calculated by use of the following formula. […]
For orientation: Calcium assays in cells follow changes in intracellular calcium, usually with a dye or a luminescent sensor.

The next test concerns P2X receptor. The experiment in a line: Intracellular calcium ion concentration in cultured epidermal keratinocytes (Fluo3-AM fluorescence), P2X agonist/inhibitor. The conditions noted are these: FIG. 2; for concentration of intracellular calcium ions in the keratinocytes: agonist solution (final concentration 10 μM) added to epidermal keratinocytes. How it is done:
as §1, with “cells/well). On the following day, the aforementioned culture solution was removed from the well plate by use of a pipette such that the cells were not exfoliated from the wells. Subsequently, a balanced salt solution (BSS: an aqueous solution prepared by dissolving NaCl (150 mM), KCl (5 mM), CaCl2 (1.8 mM), NaH2PO4 (1.2 mM), MgCl2 (1.2 mM), D-glucose (10 mM), and HEPES (25 mM) in water, and adjusting the pH of the resultant solution to 7.4 by use of NaOH) and Fluo3-AM (product of Dainippon Pharmaceutical Co., Ltd.), which is a calcium-sensitive fluorescent dye, were added to the cultured epidermal keratinocytes (total amount of BSS and Fluo3-AM per well: […]), and incubation was carried out at 37° C. for 60 minutes, to thereby introduce the fluorescent dye into the cultured epidermal keratinocytes.” for “cells/well).”
as §2, §3

The next test concerns epidermal keratinocytes. The experiment in a line: Intracellular calcium ion concentration in epidermal keratinocytes after adding pain-producing substances. The conditions noted are these: lactic acid present (mM range), two seconds after addition of the solution; FIG. 4. How it is done: as §1, with “solution.” for “solution. On the day before measurement of calcium ions was carried out, the thus-cultured epidermal keratinocytes were inoculated into a 96-well plate (2×10^5 cells/well).”
as §2, §3
Fmin: Fluorescence intensity of Fluo3-AM when EDTA is added and Ca^2+ is blocked (minimum fluorescence intensity)
Fmax: Fluorescence intensity of Fluo3-AM in the presence of excess Ca^2+ (breakage of cell membranes by a surfactant) (maximum fluorescence intensity) […]

T1 sequence (Q8NER1 whole entry): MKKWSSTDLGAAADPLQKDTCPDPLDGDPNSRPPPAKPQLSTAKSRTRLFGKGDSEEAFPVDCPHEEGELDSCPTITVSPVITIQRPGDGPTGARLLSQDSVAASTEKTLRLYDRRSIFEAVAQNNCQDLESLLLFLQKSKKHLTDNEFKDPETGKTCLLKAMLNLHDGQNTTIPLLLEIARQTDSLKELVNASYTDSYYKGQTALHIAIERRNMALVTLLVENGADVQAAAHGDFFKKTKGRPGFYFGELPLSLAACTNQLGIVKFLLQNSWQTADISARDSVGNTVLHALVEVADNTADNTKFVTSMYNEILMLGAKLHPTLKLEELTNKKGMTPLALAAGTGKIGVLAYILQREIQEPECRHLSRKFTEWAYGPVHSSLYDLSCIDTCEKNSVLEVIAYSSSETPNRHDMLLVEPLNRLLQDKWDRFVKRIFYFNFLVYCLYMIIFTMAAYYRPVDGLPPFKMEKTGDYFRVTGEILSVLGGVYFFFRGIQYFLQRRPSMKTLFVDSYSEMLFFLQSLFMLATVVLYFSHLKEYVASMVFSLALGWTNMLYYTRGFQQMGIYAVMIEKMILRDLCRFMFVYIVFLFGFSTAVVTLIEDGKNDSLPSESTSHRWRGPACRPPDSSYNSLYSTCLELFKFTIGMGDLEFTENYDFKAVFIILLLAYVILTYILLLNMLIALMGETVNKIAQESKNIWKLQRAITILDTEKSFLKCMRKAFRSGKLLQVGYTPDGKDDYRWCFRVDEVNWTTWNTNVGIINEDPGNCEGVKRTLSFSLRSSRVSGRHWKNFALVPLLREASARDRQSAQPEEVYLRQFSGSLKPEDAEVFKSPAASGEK

With `COc1cc(CNC(=O)CCCC/C=C/C(C)C)ccc1O` [capsaicin], the “concentration of intracellular calcium ions in the keratinocytes” value on VR1 receptor (capsaicin solution (final concentration 100 nM to 10 μM) added to epidermal keratinocytes, FIG. 1A) was “significantly increased”. For `Nc1ncnc2c1ncn2[C@@H]1O[C@H](COP(=O)(O)CP(=O)(O)OP(=O)(O)O)[C@@H](O)[C@H]1O` [αβ-me ATP, αβ-methelene ATP], the “concentration of intracellular calcium ions in the keratinocytes” value in the test on P2X receptor is reported as “significantly increased”. Consider `Oc1cc2c(cc1O)CN(C(=S)NCCc1ccc(Cl)cc1)CCC2` [capsazepine], for which the “increase in the concentration of intracellular calcium ions caused by capsaicin” value at VR1 receptor (keratinocytes preliminarily treated with capsazepine for 10 minutes, then mixture of capsaicin and capsazepine added, FIG. 1B) is on record as “suppressed”. As to “2′,3′-o-(2,4,6-trinitrophenyl)adenosine 5′-triphosphate [TNP-ATP]”, the “increase in the concentration of intracellular calcium ions caused by αβ-me ATP” value in the test on P2X receptor (keratinocytes preliminarily treated with TNP-ATP (100 nM) for 10 minutes, then mixture of TNP-ATP and αβ-me ATP added) is reported as “suppressed”. With `Nc1ncnc2c1ncn2[C@@H]1O[C@H](COP(=O)(O)OP(=O)(O)OP(=O)(O)O)[C@@H](O)[C@H]1O` [ATP, adenosine 5′-triphosphate], the “concentration of intracellular calcium ions in the keratinocytes” value in the test on P2X receptor is recorded as “significantly increased”. Consider `CC(O)C(=O)O` (stereo not drawn) [lactic acid], for which the “concentration of intracellular calcium ions in the epidermal keratinocytes” value in the test on epidermal keratinocytes is recorded as “increased”.
